According to patent EP4400100A1, “ANT[…] USE IN THE TREATMENT OF CANCER” (Instituto de Investigación Biomédica de Salamanca De la …, priority 2023, dated 2024):

What was measured:
Assay type in all cases: cell-based
[1] = system: androgen-treated cancer cell lines (AR+ and AR-); experiment: Cell growth after 7 days of treatment with dihydrotestosterone, enzalutamide and their combination; conditions: for cell growth on androgen stimulation: DHT 10 nM
Procedure: (§1) • Figure 1. […] Study of cell proliferation by MTT assay in AR+ MCF7, BT474, BT549 and HS 578T lines and in AR-HCC1937, HCC1569 and MDA-MB-231 lines at 24, 48 and 72 hours after enzalutamide treatment. Error bars are not shown when smaller than the symbol size. IC50 (best fit and 95% confidence interval) shown below. • Figure 2. […] Cell viability study by Annexin V/propidium iodide labelling in AR+ MCF7, BT474, BT549 and HS 578T lines and in AR- HCC1937, HCC1569 and MDA-MB-231 lines after 72 hours of enzalutamide treatment. Error bars represent SD. Significance between C- and different conditions shown without brackets (^∗p < 0.05, ^∗∗p < 0.01, ★p<0.001). • Figure 3. A) Effect of […] dihydrotestosterone, 10 µM enzalutamide and their combination on the indicated cell lines after 7 days of treatment. Data are the average of three independent experiments. Error bars represent SD. Statistically significant differences between C- and different conditions are shown without brackets (*p < 0.05, **p < 0.01, *p<0.001). […] Study of cell proliferation by MTT assay in the AR+ LN18 line and in the AR- SKOV-3 and CAL33 lines at 24, 48 and 72 hours after treatment with enzalutamide.
To assess whether the effect of enzalutamide is androgen-independent, we tested the effect of enzalutamide on androgen-treated cancer cell lines. We studied the effects of dihydrotestosterone (DHT) (10 nM), enzalutamide (10 µM) and their combination on the different lines (Figure 3A).

[2] = system: AR+ MCF7, BT474, BT549 and HS 578T lines and AR- HCC1937, HCC1569 and MDA-MB-231 lines; experiment: Apoptosis / cell viability by Annexin V/propidium iodide labelling and flow cytometry in breast cancer cell lines; conditions: varying concentrations, 72 hours, independent of receptor status
Procedure: as §1

[3] = system: AR+ MCF7, BT474, BT549 and HS 578T lines and AR- HCC1937, HCC1569 and MDA-MB-231 lines; experiment: Cell proliferation by MTT assay in breast cancer cell lines
Procedure: as §1

[4] = system: AR+ LN18 line and AR- SKOV-3 and CAL33 lines; experiment: Cell proliferation by MTT assay in ovarian, glioblastoma and head and neck cancer cell lines; conditions: SKOV-3 (AR-), 24, 48 and 72 hours, preliminary results
Procedure: as §1

Compound	cell growth on androgen stimulation ([1]; BT474 (AR+) and AR- lines)	cell growth on androgen stimulation ([1]; HS 578 T, followed by BT549 and MCF7 (AR+))	inhibition of proliferation ([1]; enzalutamide 10 µM alone)	inhibition of cell proliferation ([1]; enzalutamide 10 µM combined with DHT 10 nM, AR+ and AR- cells)	apoptosis [2]	cell growth inhibition, ranking of cell lines ([3]; MDA-MB-231 (AR-) line, 24, 48 or 72 hours, followed by HCC1569 (AR-), BT474 (AR+) and BT549 (AR+))	cell proliferation ([3]; all breast cancer cell lines tested (AR+ and AR-), 24, 48 and 72 hours of treatment, higher efficacy at 72 hours)	proliferation [4]
C[C@]12CCC(=O)C[C@@H]1CC[C@@H]1[C@@H]2CC[C@]2(C)[C@@H](O)CC[C@@H]12 [dihydrotestosterone]	No significant differences	highest increase in cell growth						
CNC(=O)c1ccc(N2C(=S)N(c3ccc(C#N)c(C(F)(F)F)c3)C(=O)C2(C)C)cc1F [enzalutamide]			induced a higher inhibition of proliferation than that observed at 72 hours	the inhibition of cell proliferation was less than that of enzalutamide alone	induced apoptosis in a dose-dependent manner	the most affected	inhibited cell proliferation in a dose- and time-dependent manner in all cell lines tested	induces an inhibitory effect on proliferation regardless of the androgen receptor status of the tumours
